Measurements reported in the NIST ThermoML archive (doi:10.1021/acs.jced.9b00248).

Test: mn = molality of the nth substance listed, in mol/kg
Settings: Liquid; for viscosity: Vibrating wire viscometry; for mass density: Vibrating tube method

[Ca+2].[Cl-].[Cl-] [calcium chloride] + O
Settings | mass density [kg/m3] | viscosity [mPa·s]
274.75 K, 1300 kPa, m1 = 1 | – | 2.142
274.75 K, 49900 kPa, m1 = 1 | – | 2.117
274.75 K, 99700 kPa, m1 = 1 | – | 2.096
274.87 K, 1270 kPa, m1 = 1 | 1088.12 | –
274.87 K, 15180 kPa, m1 = 1 | 1094.18 | –
274.87 K, 30070 kPa, m1 = 1 | 1100.27 | –
274.87 K, 49880 kPa, m1 = 1 | 1108.27 | –
274.87 K, 69750 kPa, m1 = 1 | 1115.89 | –
274.87 K, 99730 kPa, m1 = 1 | 1126.88 | –
274.98 K, 1310 kPa, m1 = 2.5 | 1201.94 | –
274.98 K, 15210 kPa, m1 = 2.5 | 1207.74 | –
274.98 K, 30100 kPa, m1 = 2.5 | 1212.77 | –
274.98 K, 49930 kPa, m1 = 2.5 | 1219.37 | –
274.98 K, 69770 kPa, m1 = 2.5 | 1225.9 | –
274.98 K, 99750 kPa, m1 = 2.5 | 1235.53 | –
296.18 K, 1280 kPa, m1 = 1 | 1082.39 | –
296.18 K, 15170 kPa, m1 = 1 | 1087.93 | –
296.18 K, 30070 kPa, m1 = 1 | 1093.68 | –
296.18 K, 49900 kPa, m1 = 1 | 1101.19 | –
296.18 K, 69750 kPa, m1 = 1 | 1108.4 | –
296.18 K, 99730 kPa, m1 = 1 | 1118.84 | –
296.21 K, 30100 kPa, m1 = 1 | – | 1.224
296.21 K, 99700 kPa, m1 = 1 | – | 1.237
296.22 K, 1310 kPa, m1 = 2.5 | 1192.77 | –
296.22 K, 15240 kPa, m1 = 2.5 | 1197.73 | –
296.22 K, 30130 kPa, m1 = 2.5 | 1202.82 | –
296.22 K, 49960 kPa, m1 = 2.5 | 1209.46 | –
296.22 K, 69780 kPa, m1 = 2.5 | 1215.91 | –
296.22 K, 99740 kPa, m1 = 2.5 | 1225.32 | –
323.23 K, 1280 kPa, m1 = 2.5 | 1179.3 | –
323.23 K, 15180 kPa, m1 = 2.5 | 1184.63 | –
323.23 K, 30060 kPa, m1 = 2.5 | 1189.89 | –
323.23 K, 49910 kPa, m1 = 2.5 | 1196.52 | –
323.23 K, 69770 kPa, m1 = 2.5 | 1202.94 | –
323.23 K, 99730 kPa, m1 = 2.5 | 1212.15 | –
323.31 K, 1240 kPa, m1 = 1 | 1071.6 | –
323.31 K, 15190 kPa, m1 = 1 | 1077.19 | –
323.31 K, 30070 kPa, m1 = 1 | 1082.81 | –
323.31 K, 49880 kPa, m1 = 1 | 1090.06 | –
323.31 K, 69760 kPa, m1 = 1 | 1097.04 | –
323.31 K, 99750 kPa, m1 = 1 | 1107.2 | –
323.4 K, 1300 kPa, m1 = 1 | – | 0.736
323.4 K, 15200 kPa, m1 = 1 | – | 0.734
323.4 K, 30100 kPa, m1 = 1 | – | 0.732
323.4 K, 49900 kPa, m1 = 1 | – | 0.728
323.4 K, 69800 kPa, m1 = 1 | – | 0.725
348.19 K, 1320 kPa, m1 = 2.5 | 1165.84 | –
348.19 K, 15220 kPa, m1 = 2.5 | 1170.56 | –
348.19 K, 30110 kPa, m1 = 2.5 | 1175.97 | –
348.19 K, 49950 kPa, m1 = 2.5 | 1182.84 | –
348.19 K, 69790 kPa, m1 = 2.5 | 1189.55 | –
348.19 K, 99790 kPa, m1 = 2.5 | 1199.01 | –
348.2 K, 1300 kPa, m1 = 1 | 1058.82 | –
348.2 K, 15220 kPa, m1 = 1 | 1064.57 | –
348.2 K, 30100 kPa, m1 = 1 | 1070.33 | –
348.2 K, 49930 kPa, m1 = 1 | 1077.65 | –
348.2 K, 69790 kPa, m1 = 1 | 1084.72 | –
348.2 K, 99770 kPa, m1 = 1 | 1094.89 | –
373.2 K, 1350 kPa, m1 = 2.5 | 1151.73 | –
373.2 K, 15250 kPa, m1 = 2.5 | 1156.76 | –
373.2 K, 30140 kPa, m1 = 2.5 | 1161.97 | –
373.2 K, 49960 kPa, m1 = 2.5 | 1168.74 | –
373.2 K, 69820 kPa, m1 = 2.5 | 1175.25 | –
373.2 K, 99780 kPa, m1 = 2.5 | 1184.69 | –
373.22 K, 1320 kPa, m1 = 1 | 1042.78 | –
373.22 K, 15230 kPa, m1 = 1 | 1048.82 | –
373.22 K, 30130 kPa, m1 = 1 | 1054.88 | –
373.22 K, 49940 kPa, m1 = 1 | 1062.61 | –
373.22 K, 69790 kPa, m1 = 1 | 1070 | –
373.22 K, 99790 kPa, m1 = 1 | 1080.38 | –
373.45 K, 30100 kPa, m1 = 1 | – | 0.393
373.45 K, 49900 kPa, m1 = 1 | – | 0.399
398.26 K, 1360 kPa, m1 = 2.5 | 1134.93 | –
398.26 K, 15270 kPa, m1 = 2.5 | 1140.45 | –
398.26 K, 30160 kPa, m1 = 2.5 | 1146.01 | –
398.26 K, 49970 kPa, m1 = 2.5 | 1153.12 | –
398.26 K, 69820 kPa, m1 = 2.5 | 1159.89 | –
398.26 K, 99800 kPa, m1 = 2.5 | 1169.63 | –
398.28 K, 1320 kPa, m1 = 1 | 1024.8 | –
398.28 K, 15230 kPa, m1 = 1 | 1031.2 | –
398.28 K, 30120 kPa, m1 = 1 | 1037.76 | –
398.28 K, 49940 kPa, m1 = 1 | 1045.99 | –
398.28 K, 69780 kPa, m1 = 1 | 1053.7 | –
398.28 K, 99790 kPa, m1 = 1 | 1064.71 | –
398.33 K, 15200 kPa, m1 = 1 | – | 0.31
398.33 K, 30100 kPa, m1 = 1 | – | 0.315
398.33 K, 49900 kPa, m1 = 1 | – | 0.321
423.46 K, 1400 kPa, m1 = 1 | – | 0.255
423.46 K, 50000 kPa, m1 = 1 | – | 0.266
423.46 K, 69800 kPa, m1 = 1 | – | 0.272
423.6 K, 1340 kPa, m1 = 1 | 1004.42 | –
423.6 K, 1360 kPa, m1 = 2.5 | 1116.33 | –
423.6 K, 15250 kPa, m1 = 1 | 1011.3 | –
423.6 K, 15260 kPa, m1 = 2.5 | 1122.22 | –
423.6 K, 30150 kPa, m1 = 1 | 1018.56 | –
423.6 K, 30150 kPa, m1 = 2.5 | 1128.37 | –
423.6 K, 49950 kPa, m1 = 1 | 1027.46 | –
423.6 K, 49980 kPa, m1 = 2.5 | 1136 | –
423.6 K, 69810 kPa, m1 = 2.5 | 1143.19 | –
423.6 K, 69820 kPa, m1 = 1 | 1035.71 | –
423.6 K, 99790 kPa, m1 = 2.5 | 1153.51 | –
423.6 K, 99810 kPa, m1 = 1 | 1047.43 | –
448.43 K, 1400 kPa, m1 = 1 | – | 0.226
448.43 K, 69800 kPa, m1 = 1 | – | 0.235
448.83 K, 1360 kPa, m1 = 2.5 | 1096.34 | –
448.83 K, 15250 kPa, m1 = 2.5 | 1102.89 | –
448.83 K, 30150 kPa, m1 = 2.5 | 1109.65 | –
448.83 K, 49970 kPa, m1 = 2.5 | 1117.84 | –
448.83 K, 69820 kPa, m1 = 2.5 | 1125.62 | –
448.83 K, 99830 kPa, m1 = 2.5 | 1136.51 | –
448.84 K, 1360 kPa, m1 = 1 | 982.19 | –
448.84 K, 15270 kPa, m1 = 1 | 989.78 | –
448.84 K, 30160 kPa, m1 = 1 | 997.78 | –
448.84 K, 49980 kPa, m1 = 1 | 1007.39 | –
448.84 K, 69830 kPa, m1 = 1 | 1016.54 | –
448.84 K, 99810 kPa, m1 = 1 | 1029.19 | –
